Measured values as given in patent EP0919233A1, “THERAPEUTIC AGENT FOR KIDNEY DISEASES” (KYOWA HAKKO KOGYO KABUSHIKI KAISHA, priority 1996, dated 1997).

Columns and labels:
Assay type in all cases: in vivo
Masugi Nephritis = experiment: Effect on Increase of Albumin Excretion in Masugi Nephritis; conditions: ddY-strain male mice, 1 mg/kg orally once a day from the previous immunization, 24 hr urine four weeks after second NT injection, mean ± standard error, n=11; control group 134 ± 9, normal group 85 ± 5
Experimental: Mouse nephrotoxin (hereinafter referred to as NT) was prepared according to the method of Ito, et al. [The Japanese Journal of Nephrology, 23, 25-36 (1981)]. That is, glomerular basement membrane (hereinafter referred to as GBM) was isolated from mouse kidney and digested with trypsin (Sigma). The digested GBM was subjected to ultracentrifugation under cooling, and the supernatant was dialyzed against distilled water, followed by lyophilization. The lyophile product was intracutaneously injected as an antigen into four foot pads of a rabbit together with Freund's complete adjuvant (Iatron; hereinafter referred to as FCA) once a week for 4 weeks for immunization. The whole blood was drawn from the immunized rabbit, and serum was separated and inactivated at 56°C for 30 minutes to prepare NT.
In this test, ddY-strain male mice weighing 29-36 g were used. For previous immunization, 0.25 ml of an FCA emulsion containing 0.25 mg of rabbit immunoglobulin-globulin (IgG, Sigma) was intraperitoneally injected into mice. Nephritis was induced by intravenous injection of 0.075 ml of NT through the tail vein 4 and 11 days after the previous immunization. […] The supernatant was analyzed for urinary albumin content using an autoanalyzer (Olympus). […]
The results are shown in Table 5 as the means ± standard error of each group consisting of 11 mice. Statistical significance was evaluated by Student's t-test.

Diabetic Nephropathy = experiment: Effect on Increase of Albumin Excretion in Diabetic Nephropathy (streptozotocin-induced); conditions: STZ-diabetic ddY-strain male mice, 24 hr urine twelve weeks after STZ, mean ± standard error, control group 333 ± 30, normal group 80 ± 3
Experimental: In this test, ddY-strain male mice weighing 25-28 g were used. Diabetes was induced according to the method of Tsuchida, et al. [Jin To Toseki (Kidney and Dialysis), 31, 363-366 (1991)]. That is, streptozotocin (5 mg/ml, Sigma; hereinafter referred to as STZ) dissolved in 0.05 M citrate buffer was intravenously injected into mice through the tail vein at a dose of 10 ml/kg. On the fourth day after the STZ administration, 30 µl of blood was collected from the tail vein of the mice and the blood glucose was determined using Glutestsensor (Sanwa Kagaku). The animals were divided into three groups based on the blood glucose level. Twelve weeks after the STZ administration, each mouse was put into a metabolic cage and received oral administration of 0.5 ml/10 g of distilled water twice at an interval of 12 hours. Urine was collected for 24 hours, and after measurement of the volume, the urine was centrifuged under cooling (3000 rpm, 4°C) for 5 minutes. The supernatant was analyzed for urinary albumin content using an autoanalyzer (Olympus). A test compound was orally administered once a day for 11 weeks, starting on the fifth day after the STZ administration. […] Statistical significance was evaluated by Aspin-Welch's test for the difference between the control group and the normal group and by Steel's test for the difference between the control group and the test compound-administered group.

dd-strain male mice = experiment: Acute Toxicity Test (minimum lethal dose); conditions: three mice per group, mortality observed seven days after administration
Experimental: A test compound was orally or intraperitoneally administered to groups of dd-strain male mice weighing 20 ± 1 g, each group consisting of three mice. […] The MLD was >1000 mg/kg for oral administration of Compound 10 and was >100 mg/kg for intraperitoneal administration of Compound 10.

Structure (SMILES): CCOc1cc2nc(N3CCOCC3)nc(N3CCC(n4c(=O)c5cc(C)ccc5n(C)c4=O)CC3)c2cc1OCC.Cl [Compound 10, 3-[1-(6,7-Diethoxy-2-morpholino-4-quinazolinyl)-4-piperidinyl]-1,2,3,4-tetrahydro-1,6-dimethyl-2,4-dioxoquinazoline hydrochloride]
- Urinary Albumin Content (Masugi Nephritis): 96 ± 7 mg/kg/24 hr
- Urinary Albumin Content (Diabetic Nephropathy; 1 mg/kg orally once a day for 11 weeks): 244 ± 16 mg/kg/24 hr
- Urinary Albumin Content (Diabetic Nephropathy; 10 mg/kg orally once a day for 11 weeks): 200 ± 13 mg/kg/24 hr
- minimum lethal dose (MLD) (dd-strain male mice; intraperitoneal administration): > 100 mg/kg
- minimum lethal dose (MLD) (dd-strain male mice; oral administration): > 1000 mg/kg
